According to US20070259935A1, “CRYSTALLINE FORMS OF LETROZOLE AND PROCESSES FOR MAKING THEM” (priority 2006, published 2007):
Entries after “also recorded” stand apart in the source; their conditions may differ.

How the values were obtained:
[1] = Crystal form conversion on stirring in solvent; assay type: physicochemical
[2] = Relative stability of the crystalline forms (cooling rate observations in toluene); assay type: physicochemical; settings: concluded from slow versus faster cooling in toluene and the conversion observations
Text: Slow cooling a solution of letrozole in toluene gave mainly Form I, whereas faster cooling a solution in toluene gave Form II.
Indeed, due to the relative instability of Form II, the use of Form II or a mixture of Forms I and II could be liable to conversion during storage to form some or more Form I, respectively. Such a variation in crystalline form is generally undesirable in pharmaceuticals as the different forms can have different properties, e.g. bio-absorption, solubility, degradation, etc. Thus, while the use of either crystalline form in a pharmaceutical composition is contemplated, making the composition from a crystalline letrozole that has an XRPD substantially corresponding to FIG. 1 is preferred.

[3] = Crystal form conversion during annealing; assay type: physicochemical; settings: annealing above 140° C.
[4] = cited from earlier work

Row | Compound | conversion of crystalline form when stirred in a solvent for 2 weeks ([1]; stirred in a solvent for 2 weeks) | conversion of crystalline form when stirred in various solvents ([1]; stirred in various solvents) | kinetic versus thermodynamic form / relative stability [2] | conversion of crystalline form during annealing [3] | conversion of crystalline form when stirred in ethanol ([1]; stirred in ethanol at room temperature) | solubility in dichloromethane ([4]; dichloromethane) | solubility in ethanol ([4]; ethanol) | solubility in water ([4]; water)
1 | N#Cc1ccc(C(c2ccc(C#N)cc2)n2cncn2)cc1 [Form I, 4,4′-(H-1,2,4-Triazol-1-ylmethylene)dibenzonitrile] | does not convert into Form II | does not convert | thermodynamically stable form | does not convert |  |  |  | 
2 | N#Cc1ccc(C(c2ccc(C#N)cc2)n2cncn2)cc1 [Form II, 4,4′-(H-1,2,4-Triazol-1-ylmethylene)dibenzonitrile] |  |  | kinetic form; also recorded: generally less stable than the Form I | (partially) converted into form I | (partially) converted into Form I |  |  | 
3 | N#Cc1ccc(C(c2ccc(C#N)cc2)n2cncn2)cc1 [Letrozole, 4,4′-(H-1,2,4-Triazol-1-ylmethylene)dibenzonitrile] |  |  |  |  |  | freely soluble | slightly | practically insoluble
